Legend:
[1] = In vitro determination of the reduction in viscosity of egg white; details: 20 minutes at 37° C, mean ± S.E. of 3 to 5 experiments
Procedure: Mucolytic activity is evaluated by determining the reduction in viscosity of egg white or mucin in vitro. L-Cysteine ethyl ester hydrochloride, L-cysteine methyl ester hydrochloride and acetyl-L-cysteine are used as test compounds for comparison. (1) In vitro determination of the reduction in viscosity of egg white Egg white, which is pooled in sufficient quantity to supply material for all the determinations, is gently blended in a mixer for 5 minutes. 9ml portions of this material are put into a 50-ml beaker and the test solution in a volume of 1ml containing various concentrations of test compound (test compound is dissolved in distilled water and the solution is adjusted to pH 8.0 with 1 N sodium hydroxide, while distilled water is used as a control) is added. The mixture is then shaken for 20 minutes at 37° C. Viscosity of the resulting solution is determined by an Ostwald viscosimeter. Results shown in Table 1 are percent reduction in relative viscosity at various concentrations of the test compound used.

mucin = assay: In vitro determination of the reduction in viscosity of mucin; details: 10 mM; 1% mucin, pH 8.0, 1 hour at 37° C; mean ± S.E. of 3 to 5 experiments
Procedure: Mucolytic activity is evaluated by determining the reduction in viscosity of egg white or mucin in vitro. L-Cysteine ethyl ester hydrochloride, L-cysteine methyl ester hydrochloride and acetyl-L-cysteine are used as test compounds for comparison.
(2) In vitro determination of the reduction in viscosity of mucin
According to the method presented by Sheffner et al. (Ann, N.Y. Acad. Sci., Vol. 106, P 298-310, 1963), bacteriological mucin (Nakarai Chemical Co., Ltd.) is dissolved in Sorensen's phosphate buffer (pH =8.0) and a 1% mucin solution is prepared. 0.9ml portions of the solution are put into test tubes and test compounds (prepared in the same manner as in (1) previously described, except that the buffer solution is used for control) are added to them in a concentration 10mM. The mixture is then shaken for 1 hour at 37° C. The viscosity of the resulting solution is determined by Ostwald viscosimeter. Results shown in Table 1 are percent reduction in relative viscosity at 10mM of the test compounds used.

[2] = Changes in the mucolytic activity of the test compounds treated with rabbit serum (viscosity of egg white); details: for Reduction in the mucolytic activity (%): 1.0 mM, rabbit serum treated vs untreated; for Percent reduction in relative viscosity of egg white, treated with rabbit serum / Percent reduction in relative viscosity of egg white, untreated with rabbit serum: final concentration 1.0 mM, mean ± S.E. of 3 to 5 experiments; for Percent reduction in relative viscosity of egg white, treated with rabbit serum: after 30 minutes at 37° C with rabbit serum; for Percent reduction in relative viscosity of egg white, untreated with rabbit serum: without rabbit serum
Procedure: (3) Changes in the mucolytic activity of the test compounds treated with rabbit serum.
0.1ml of test compound (prepared in the same manner as (1) previously described) and 0.9ml of rabbit serum are put into a 50-ml beaker and the resulting mixture is shaken for 30 minutes at 37° C. 9ml of egg white is then added it and it is shaken for another 20 minutes. The viscosity of the resulting solution is determined by an Ostwald viscosimeter. Results shown in Table 2 are percent reduction in the relative viscosity of egg white at 1mM of the test compounds after treatment with or without rabbit serum.

in vivo = details: mouse, ip
Procedure: 5-week-old male mice of ddy strain (body weight 24-28g) are used. […] Test solution
Test compound is added to physiological saline and the resulting solution is neutralized with sodium hydroxide to form a 5% solution (pH 7.0).
After administration of test solution, general symptoms and deaths which are caused during seven days are observed. The LD50 values are calculated according to the method of Litchfield and Wilcoxon.

SMILES	Percent reduction in relative viscosity, egg white ([1]; final concentration 0.1 mM)	Percent reduction in relative viscosity, egg white ([1]; final concentration 10.0 mM)	Percent reduction in relative viscosity, mucin (mucin)	Reduction in the mucolytic activity (%) [2]	Percent reduction in relative viscosity of egg white, treated with rabbit serum [2]	Percent reduction in relative viscosity of egg white, untreated with rabbit serum [2]	LD50 at 168 h (in vivo)
CC(C)(S)C(=O)N[C@@H](CS)C(=O)O [N-(2-mercaptoisobutyryl)-L-cysteine]	23.1 ± 1.4%	57.0 ± 1.0%	22.5 ± 1.5%	14.1%	32.9 ± 1.0%	38.3 ± 2.2%	
CC(S)C(=O)N[C@@H](CS)C(=O)O (single isomer, unassigned) [N-(2-mercaptopropionyl)-L-cysteine-A]	24.9 ± 1.5%	56.4 ± 1.6%	26.6 ± 1.5%	27.2%	30.0 ± 1.0%	41.2 ± 2.1%	2090 mg/kg
CC(=O)N[C@@H](CS)C(=O)O [N-acetyl-L-cysteine, acetyl-L-cysteine, reference compound]	11.0 ± 2.6%	49.0 ± 1.8%	4.8 ± 2.5%	37.3%	18.5 ± 0.8%	29.5 ± 2.5%	
COC(=O)[C@@H](N)CS.Cl [L-cysteine methyl ester hydrochloride, reference compound]	31.1 ± 5.6%	60.6 ± 2.4%	17.8 ± 0.2%	84.6%	7.0 ± 1.2%	45.5 ± 2.0%	
CC(S)C(=O)N[C@@H](CS)C(=O)O (single isomer, unassigned) [N-(2-mercaptopropionyl)-L-cysteine-B]	24.9 ± 1.4%	57.7 ± 1.0%	20.1 ± 0.4%	18.8%	31.1 ± 3.8%	38.1 ± 2.6%	
CCOC(=O)[C@@H](N)CS.Cl [L-cysteine ethyl ester hydrochloride, L-Cysteine ethyl ester hydrochloride, reference compound]	25.1 ± 3.5%	59.9 ± 1.2%	19.7 ± 1.5%	63.3%	15.4 ± 1.8%	42.0 ± 1.1%	
O=C(CCS)N[C@@H](CS)C(=O)O [N-(3-mercaptopropionyl)-L-cysteine]	22.8 ± 0.1%	54.5 ± 4.7%	28.1 ± 0.5%	-5.4%	38.7 ± 2.6%	36.7 ± 1.6%	
O=C(CS)N[C@@H](CS)C(=O)O [N-mercaptoacetyl-L-cysteine]	26.1 ± 4.1%	60.0 ± 4.4%	31.8 ± 1.5%	9.8%	35.9 ± 0.3%	39.8 ± 3.0%	

Reference: patent US4137420A, “Cysteine derivatives” (Santen Pharmaceutical Co., Ltd., priority 1976, dated 1979)
